In brackets after ≈: the same amount, converted by molar mass. Square brackets hold non-standard residues; d marks the D form. Peptide text beside a SMILES is read from it. Orn = NCCC[C@H](N)C(=O)O
What was measured:
C. acnes ATCC11827 = format: cell-based, Cutibacterium acnes; settings: ATCC11827, 48 h
Description: (§1) The ten antibiotic resistant C. acnes clinical isolates were acquired from BEI resources with the two reference strains obtained from American Type Culture Collection (ATCC, Manassas, VA, USA). C. acnes is a relatively slow-growing, typically aerotolerant anaerobic so all in vitro C. acnes experiments were performed under anaerobic conditions.
(§2) Single colonies were inoculated in Reinforced Clostridium Medium (RCM) broth supplemented with sodium thioglycolate and incubated at 37 °C, with shaking at 200 rpm, for 2 or 3 days to reach logarithmic growth (OD600nm = 1.0). Each C. acnes (1 × 10^6 CFU per mL) was incubated with dAMP or clindamycin at two-fold serial dilutions (0.5–32 μg per mL) in RCM on a 96-well microplate for 48 h. Three replicas were included for each test article concentration. Bacterial growth was measured by optical density at 600 nm to determine the MIC for each dAMP applied.

C. acnes ATCC6919 = format: cell-based, Cutibacterium acnes; settings: ATCC6919, 48 h
Description: as §1, §2

C. acnes HL007PA1 = format: cell-based, Cutibacterium acnes; settings: HL007PA1, 48 h
Description: as §1, §2

C. acnes HL013PA1 = format: cell-based, Cutibacterium acnes; settings: HL013PA1, 48 h
Description: as §1, §2

C. acnes HL038PA1 = format: cell-based, Cutibacterium acnes; settings: HL038PA1, 48 h
Description: as §1, §2

C. acnes HL043PA1 = format: cell-based, Cutibacterium acnes; settings: HL043PA1, 48 h
Description: as §1, §2

C. acnes HL043PA2 = format: cell-based, Cutibacterium acnes; settings: HL043PA2, 48 h
Description: as §1, §2

C. acnes HL045PA1 = format: cell-based, Cutibacterium acnes; settings: HL045PA1, 48 h
Description: as §1, §2

C. acnes HL053PA1 = format: cell-based, Cutibacterium acnes; settings: HL053PA1, 48 h
Description: as §1, §2

C. acnes HL056PA1 = format: cell-based, Cutibacterium acnes; settings: HL056PA1, 48 h
Description: as §1, §2

C. acnes HL072PA1 = format: cell-based, Cutibacterium acnes; settings: HL072PA1, 48 h
Description: as §1, §2

C. acnes HL082PA2 = format: cell-based, Cutibacterium acnes; settings: HL082PA2, 48 h
Description: as §1, §2

[1] = test system: ten C. acnes clinical isolates and two C. acnes ATCC reference strains; format: cell-based, Cutibacterium acnes; settings: for in vitro anti-bacterial activity against the C. acnes bacterial strains (in words): 0.5–32 μg/mL concentration range evaluated; for MIC values against all C. acnes isolates: ten clinical isolates and two ATCC reference strains, 48 h
Description: as §1, §2

[2] = test system: bioluminescent human immortalized keratinocytes (HaCaT); assay: Mammalian cytotoxicity, bioluminescent human keratinocytes; format: cell-based; settings: 8 h
Description: (§3) Noninvasive and real-time monitoring of mammalian cytotoxicity to assess the potential skin toxicity of the dAMPs was evaluated using bioluminescent human immortalized keratinocytes (HaCaT, AddexBio, San Diego, CA, USA). The bioluminescent variant of HaCaT was constructed by transfection with a luciferase gene (RediFect Red-Fluc-Puromycin, Cat# CL596002). Keratinocytes (1 × 10^4 cells, 100 μL) were plated in 96-well black-walled plates. The candidate dAMPs were 2-fold serially diluted from 1024 µg/mL in growth medium supplemented with 150 µg/mL D-luciferin. Each concentration was performed in triplicate, with the final volume being 200 μL. Imaging was performed at select times (0, 15, and 30 min and 1, 3, 5, and 8 h) after the addition of the dAMP, and compared to concurrently run vehicle-control, using an IVIS Lumina imaging system (Caliper Life Sciences, Inc., Hopkinton, MA, USA). For imaging, the 96-well plate was positioned on the stage (12.5-cm field of view), with an open emission filter, binning of 4, and f-stop 1 and a 1-min exposure time. Data analysis was performed using the Living Image software program (version 4.3, Caliper Life Sciences, Inc.). The dAMP concentrations required to kill 10% and 50% of keratinocytes were determined using GraphPad Prism 7 (GraphPad Software, San Diego, CA, USA).

[3] = test system: C. acnes HL043PA2 compared to human keratinocytes; format: cell-based; settings: 8 h
Description: In evaluating the clinical utility of each of the candidate dAMPs for C. acnes treatment, the Therapeutic Index was determined. The Therapeutic Index is defined as the ratio of concentration at which the dAMP is active against the prokaryotic C. acnes pathogen without inducing cytotoxic damage to the surrounding mammalian cells. The EC10 and EC50 doses, defined as the concentrations required to kill 10% and 50% respectively of human keratinocytes following 8 h incubation with each of the Riptide dAMPs, are tabulated and graphed in Table 2 and Figure 3, respectively. The larger the Therapeutic Index, the greater the specificity of the dAMP for destroying C. acnes cells.
as §2, §3

Row | MIC (C. acnes ATCC11827) [µg/mL] | MIC (C. acnes ATCC6919) [µg/mL] | MIC (C. acnes HL007PA1) [µg/mL] | MIC (C. acnes HL013PA1) [µg/mL] | MIC (C. acnes HL038PA1) [µg/mL] | MIC (C. acnes HL043PA1) [µg/mL] | MIC (C. acnes HL043PA2) [µg/mL] | MIC (C. acnes HL045PA1) [µg/mL] | MIC (C. acnes HL053PA1) [µg/mL] | MIC (C. acnes HL056PA1) [µg/mL] | MIC (C. acnes HL072PA1) [µg/mL] | MIC (C. acnes HL082PA2) [µg/mL] | MIC values against all C. acnes isolates [1] [µg/mL] | Structure (SMILES) | in vitro anti-bacterial activity against the C. acnes bacterial strains (in words) [1] | EC50, concentration required to kill 50% of human keratinocytes [2] [µg/mL] | Therapeutic Index (EC10 / MIC) [3] | Therapeutic Index (EC50 / MIC) [3]
1 | 8 (≈ 3.02 µM) | 2 (≈ 0.755 µM) | 4 (≈ 1.51 µM) | 4 (≈ 1.51 µM) | 4 (≈ 1.51 µM) | 4 (≈ 1.51 µM) | 8 (≈ 3.02 µM) | 4 (≈ 1.51 µM) | 4 (≈ 1.51 µM) | 4 (≈ 1.51 µM) | 8 (≈ 3.02 µM) | 2 (≈ 0.755 µM) | 2 to 8 | C[C@H](NC(=O)[C@H](Cc1ccccc1)NC(=O)[C@H](C)NC(=O)[C@H](Cc1ccccc1)NC(=O)[C@H](CCCN)NC(=O)[C@H](C)NC(=O)[C@H](Cc1ccccc1)NC(=O)[C@H](CCCN)NC(=O)[C@H](CCCN)NC(=O)[C@H](C)NC(=O)[C@H](Cc1ccccc1)NC(=O)[C@H](CCCN)NC(=O)[C@H](CCCN)NC(=O)[C@H](Cc1ccccc1)NC(=O)[C@H](CCCN)NC(=O)[C@H](CCCN)NC(=O)[C@H](C)NC(=O)[C@H](Cc1ccccc1)NC(=O)[C@H](CCCN)NC(=O)[C@H](CCCN)NC(=O)[C@H](C)NC(=O)[C@@H](N)Cc1ccccc1)C(=O)N[C@@H](Cc1ccccc1)C(N)=O [RP444] (H-FA[Orn][Orn]FA[Orn][Orn]F[Orn][Orn]FA[Orn][Orn]FA[Orn]FAFAF-NH2) | most active | 20 | 1.63 | 2.5
2 | 2 to 4 | 2 (≈ 0.714 µM) | 2 (≈ 0.714 µM) | 2 (≈ 0.714 µM) | 2 (≈ 0.714 µM) | 2 (≈ 0.714 µM) | 2 (≈ 0.714 µM) | 2 (≈ 0.714 µM) | 2 (≈ 0.714 µM) | 2 (≈ 0.714 µM) | 2 to 4 | 2 (≈ 0.714 µM) | 2 to 8 | CC[C@H](C)[C@H](NC(=O)[C@H](Cc1ccccc1)NC(=O)[C@H](CCCN)NC(=O)[C@H](CCCCN)NC(=O)[C@H](Cc1ccccc1)NC(=O)[C@H](CCCN)NC(=O)[C@H](CCCCN)NC(=O)[C@H](C)NC(=O)[C@H](Cc1ccccc1)NC(=O)[C@H](CCCCN)NC(=O)[C@H](CCCN)NC(=O)[C@@H](NC(=O)[C@@H](N)Cc1ccccc1)[C@@H](C)CC)C(=O)N[C@@H](CCCN)C(=O)N[C@@H](CCCCN)C(=O)N[C@@H](Cc1ccccc1)C(=O)N[C@@H](C)C(=O)N[C@@H](CCCCN)C(=O)N[C@@H](Cc1ccccc1)C(=O)N[C@@H](C)C(=O)N[C@@H](Cc1ccccc1)C(=O)N[C@@H](C)C(=O)N[C@@H](Cc1ccccc1)C(N)=O [RP551] (H-FI[Orn]KFAK[Orn]FK[Orn]FI[Orn]KFAKFAFAF-NH2) | most active | 34.3 | 8.3 | 17.2
3 | 8 (≈ 4.25 µM) | 4 (≈ 2.12 µM) | 4 (≈ 2.12 µM) | 2 to 4 | 8 (≈ 4.25 µM) | 4 (≈ 2.12 µM) | 8 (≈ 4.25 µM) | 4 (≈ 2.12 µM) | 4 (≈ 2.12 µM) | 4 (≈ 2.12 µM) | 8 (≈ 4.25 µM) | 8 (≈ 4.25 µM) | 2 to 8 | CC[C@H](C)[C@H](NC(=O)[C@H](CCCN)NC(=O)[C@H](C)NC(=O)[C@H](CCCN)NC(=O)[C@H](CC(C)C)NC(=O)[C@H](CCCN)NC(=O)[C@@H](NC(=O)[C@H](CCCN)NC(=O)[C@@H](NC(=O)[C@H](CCCN)NC(=O)[C@H](C)NC(=O)[C@H](CCCN)NC(=O)[C@H](CC(C)C)NC(=O)[C@H](CCCN)NC(=O)[C@@H](N)Cc1ccccc1)[C@@H](C)CC)C(C)C)C(=O)N[C@@H](CCCN)C(=O)N[C@@H](CC(C)C)C(N)=O [RP554] (H-F[Orn]L[Orn]A[Orn]I[Orn]V[Orn]L[Orn]A[Orn]I[Orn]L-NH2) | most active | 31 | 2.38 | 3.88

— paper PMC7168327, “Designed Antimicrobial Peptides for Topical Treatment of Antibiotic Resistant Acne Vulgaris” (Antibiotics, 2020)
